{
  "source": "paper PMC13621370",
  "about": "“Targeting Telomere Shelterin Protein TPP1 with Elbasvir: Induction of Autophagy and Suppression of Esophageal Cancer Tumorigenesis” (Anti-Cancer Agents in Medicinal Chemistry, 2025)",
  "molecular_target": "T1, telomere shelterin protein TPP1 (Homo sapiens, UniProt Q96AP0)",
  "T1 construct": "gene ACD; endogenous protein in RIPA lysate of KYSE150 and TE1 cells; not purified; 2I46 used only for docking",
  "T1 sequence (Q96AP0 1-458)": "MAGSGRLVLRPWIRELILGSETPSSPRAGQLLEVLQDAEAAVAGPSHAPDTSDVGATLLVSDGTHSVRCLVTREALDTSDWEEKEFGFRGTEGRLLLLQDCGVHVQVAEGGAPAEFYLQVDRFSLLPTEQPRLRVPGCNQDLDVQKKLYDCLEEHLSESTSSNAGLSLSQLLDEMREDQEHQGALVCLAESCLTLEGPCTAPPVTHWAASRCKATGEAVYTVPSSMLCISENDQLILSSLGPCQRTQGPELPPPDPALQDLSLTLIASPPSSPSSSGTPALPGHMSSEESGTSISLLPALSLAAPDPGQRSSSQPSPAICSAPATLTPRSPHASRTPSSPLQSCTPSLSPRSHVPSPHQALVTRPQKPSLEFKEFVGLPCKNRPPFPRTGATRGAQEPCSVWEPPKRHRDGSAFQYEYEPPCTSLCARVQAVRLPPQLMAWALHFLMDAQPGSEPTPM",
  "assay": "DARTS (pronase protection, Western blot of TPP1)",
  "format": "biochemical",
  "conditions": "400 uM Elbasvir, cell lysate, ambient temperature, 2 h, then pronase 20 min",
  "data": [
    {"smiles": "COC(=O)N[C@H](C(=O)N1CCC[C@H]1c1ncc(-c2ccc3c(c2)O[C@@H](c2ccccc2)n2c-3cc3cc(-c4cnc([C@@H]5CCCN5C(=O)[C@@H](NC(=O)OC)C(C)C)[nH]4)ccc32)[nH]1)C(C)C", "note": "[Elbasvir]", "values": [
      {"measurement": "DARTS (pronase protection, Western blot of TPP1)", "value": "the presence of Elbasvir increased the stability of TPP1 protein, protecting it from proteolysis"}
    ]}
  ]
}
